Like-named read-outs stand apart in the source and are kept apart here. Blank lines part the entries; values can stand above or below the molecule they belong to. Non-standard residues stand in square brackets, D forms with d. Residues, ends and D or L forms follow the SMILES beside them. ξ: configuration not given here. Oic(3aξ,7aξ) = O=C(O)[C@@H]1CC2CCCCC2N1; hArg = N=C(N)NCCCC[C@H](N)C(=O)O; Dab = NCC[C@H](N)C(=O)O
Key:
[1] = molecular target: T1, VEGF-A165/NRP-1 complex (Homo sapiens, UniProt O14786); test: Competitive ELISA-like assay, inhibition of bt-VEGF-A165 binding to immobilized NRP-1; settings: recombinant human NRP-1, bt-VEGF-A165, chemiluminescence; read-out: IC50, VEGF-A165/NRP-1 complex inhibitory effect
T1 construct: purchased R&D Systems
T1 sequence (O14786 22-641 limits assumed): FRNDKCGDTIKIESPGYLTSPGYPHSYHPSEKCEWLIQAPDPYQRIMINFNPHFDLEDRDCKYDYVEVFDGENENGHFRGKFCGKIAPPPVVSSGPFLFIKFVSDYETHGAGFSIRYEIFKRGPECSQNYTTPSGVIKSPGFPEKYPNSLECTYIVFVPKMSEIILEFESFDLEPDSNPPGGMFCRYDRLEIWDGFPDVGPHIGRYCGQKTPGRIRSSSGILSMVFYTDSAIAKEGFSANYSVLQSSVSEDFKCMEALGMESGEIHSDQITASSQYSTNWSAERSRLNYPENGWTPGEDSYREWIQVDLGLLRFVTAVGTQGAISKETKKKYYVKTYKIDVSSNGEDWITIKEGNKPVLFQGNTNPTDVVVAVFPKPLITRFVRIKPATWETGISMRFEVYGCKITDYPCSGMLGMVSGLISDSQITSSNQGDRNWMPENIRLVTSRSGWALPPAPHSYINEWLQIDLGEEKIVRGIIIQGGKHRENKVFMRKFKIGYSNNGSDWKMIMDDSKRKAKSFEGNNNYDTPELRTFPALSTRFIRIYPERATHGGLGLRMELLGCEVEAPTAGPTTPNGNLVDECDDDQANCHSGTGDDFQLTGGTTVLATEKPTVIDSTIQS
Protocol: Inhibitory activity of urea–peptide hybrids against VEGF-A165/NRP-1 complex formation was assessed with a screening ELISA-like assay. NRP-1 was immobilized on microplate wells by simple adsorption and urea–peptide hybrids competed for NRP-1 with biotinylated VEGF-A165 (bt-VEGF-A165). The amount of receptor bound bt-VEGF-A165 was visualized by its interaction with the streptavidin–horseradish peroxidase conjugate (strep-HRP) and the chemiluminescent substrate. The first analyzed group of compounds were analogues 1–3 with the urea bond between L1 and L2. […] The best hybrid in this group was compound 3, which had Lys^U (gDab) branching (where “g” corresponds to guanidinium group), but its IC50 value decreased only 2-fold. Therefore, we assume that no additional interactions between urea bond and the surface of the protein occurred. […] In the case of urea–peptide hybrids, the urea bond might be capable of forming additional hydrogen bonds with protein residues on the surface of NRP-1. The affinity of compounds may conceivably be affected by the colocation of the urea bond and the free amino group of hArg in the branching. In addition, for compounds 4–6, we can observe that decreasing the distance between the free amino group in the main chain and the urea bond in the branching has a positive effect on compounds’ affinity for NRP-1.
This method was previously described for NRP-1 [44, 45, 46]. Briefly, overnight coating at 4 °C of the flat bottom surface of a 96-well plate with 100 μL (200 ng/well) recombinant human NRP-1, NRP-2, VEGFR-1 or VEGFR-2 was followed by non-specific interactions blocking using 0.5% bovine serum albumin (BSA) in PBS. Next, 50 µL of urea–peptide hybrid in PBS and 50 µL (400 ng/mL) of human (bt)-VEGF-A165 in PBS containing 4 µg/mL of heparin were added respectively. Plates were incubated for 2 h at RT, and then washed and treated with streptavidin-horseradish peroxidase conjugate in PBS (1:8000). Next, 100 µL chemiluminescent substrate was added, and luminescence was quantified using Tecan Infinite F200Pro microplate reader (Männedorf, Switzerland). In a positive control (P) only (bt)-VEGF-A165 was present in wells. Not coated by receptor wells were treated as a negative control (N). Percentages of inhibition were calculated by the following formula:100% − [[(S − N)/(P − N)]∙100%](1) where S is the signal intensity measured in wells with urea–peptide hybrid. The IC50 of each urea–peptide hybrid was calculated using the nonlinear regression function with GraphPad Prism Version-5.01 (GraphPad Software, San Diego, CA, USA). Data are presented as log (inhibitor) versus normalized response-variable slope (Figure S16). Data are the means ± SEMs of two or three independent experiments, each performed in triplicate.

[2] = test system: NRP-1-positive breast cancer cells (MDA-MB-231); test: Labelled urea-peptide hybrid binding assay at 4 °C on cells (FACS), with NRP-1 co-staining; type: cell-based, human
From the text: VEGF-A165 binds to cell-surface NRP-1 on endothelial cells, effectively reducing surface levels of this receptor, promoting complex internalization and possibly inducing biological effects. Based on this mechanism, peptide carriers for selective drug delivery, such as iRGD peptides, have been recently disclosed. The iRGDs are used to selectively address potential therapeutic agents, e.g., doxorubicin or siRNAs inside malignant cells. We tested our tagged urea–peptide hybrid’s ability to bind human NRP-1-positive breast cancer cells (MDA-MB-231), which expressed large amount of NRP-1 at the cell surface (Figure 6a). A broad range of concentrations between 0 to 100 µg/mL of compound 10 was used to show its binding capacity on cells using fluorescence-activated cell sorting (FACS). […] To follow the impact of the ligation of this peptidomimetic on NRP-1 expression, we verified whether hybrid 10 binding interferes with the antibody used to detect NRP-1. […]
(§1) Cells were harvested using a mix of EDTA/Trypsin buffer (Invitrogen, France) to detach cells from plastic after 5 min exposure at 37 °C. […] After washing with PBS containing 2% FCS, stained cells were analyzed using BD FACSCalibur^TM (San Jose, CA, USA) and FlowJo^TM cell analysis software (FlowJo LLC, Ashland, OR, USA). […]

[3] = test system: NRP-1 expression on MDA-MB-231 breast cancer cells; test: Labelled urea-peptide hybrid binding assay at 37 °C, time course of NRP-1 cell surface expression (FACS); type: cell-based, human
Protocol: Usually, in the presence of its natural ligand, a transmembrane receptor at the cell surface may induce signaling, internalization of complex and recycling at the cell surface. […] Thus, to identify the mechanism of action of the hybrid 10 on the NRP-1 expression on cells, we followed its expression after a time course exposure of cells at 37 °C. […] This intriguing result focused our attention on tracking the level of expression intensity of NRP-1 on the surfaced of MDA-MB-231 cells exposed on compound 10. […] The median fluorescent intensity after 1 h (T60) of cell exposure on hybrid 10 was 1.5-fold higher than after 5 min of incubation (Figure 7b). […] This hypothesis is strengthened here, since MDA-MB-231 expressed a large amount of NRP-1 at the cell surface, but also had plenty of the cytoplasmic counterpart, reaching a maximum of median fluorescence intensity higher than the restricted level of NRP-1 expression at the surface (Figure 7c).
as §1

[4] = In vitro enzymatic stability in human blood serum (LC-SWATH-MS); type: in vitro ADME; settings: pooled human blood serum, 37 °C
Protocol: Rapid renal clearance and enzymatic degradation are classified as most important disadvantages of peptides as drugs. Covalent linkage to plasma proteins or chemical modifications, including amide bond modifications, might improve their half-lives. We performed proteolytic stability studies in human blood serum to investigate whether the introduction of urea bonds affected the half-lives of compounds from each of synthesized group of hybrids. Compounds 3, 6 and 7 were incubated with human serum at 37 °C. Samples were taken at different time intervals and analyzed using LC-SWATH-MS [88, 89, 90]. […] Hybrids 6 and 7 were stable toward enzymatic degradation, with 50% of each compound still being intact after 96 h (Figure 5). […] Overall, it can be concluded that the substitution of an amide bond with a urea bond has a positive effect on the proteolytic stability of the examined inhibitors.
The study was conducted in full accordance with ethical principles in accordance with the ICH E6 (R2) Guideline for Good Clinical Practice and the Code of Good Customs in Science developed by the Polish Academy of Sciences. Signed consent for using serum was obtained from volunteers. The Rector’s Commission for Ethics of Scientific Research with Human Participation, University of Warsaw, Warsaw, Poland gave the ethical approval (approval number 51/2020). Human blood from four healthy persons was directly drawn into evacuated tubes and left undisturbed at room temperature for 1 h to clot. Tubes were centrifuged at 2500× g for 10 min to prevent possible platelet activation. Serum was pipetted out of the blood collection tubes, pooled and collected in microtubes.
A degradation assay was adapted from a method described previously. Human blood serum was preactivated in Eppendorf ThermoMixer® Comfort (Hamburg, Germany) at 37 °C for 20 min (350 rpm). Next, 20 μL of aqueous urea–peptide hybrid stock solution was added to give ∼750 μg/mL final compound concentration, and incubation was continued. At selected time intervals, 50 μL of the mixture was collected and quenched by adding 200 μL of ACN:H2O:FA mixture (89:10:1, v:v:v). The obtained suspension was vortexed for 1 min (3000 min^−1) and centrifuged for 10 min in 4 °C (11,000× g). 100 μL of supernatant was collected and lyophilized. The samples reconstituted in 1 mL of 10 mM ammonium formate with 0.1% FA were subjected to LC-MS. Relative concentration at time intervals was calculated using peak area of either individual or most intense fragment of compound of interest. Analyst software version 1.7.1 was used for data acquisition, Peak View 2.2 and MultiQuant 2.1 (Sciex, ON) were used for data processing. Detailed analytical data can be found in Supplementary Materials (Figures S17–S45). […]

[5] = molecular target: T1, VEGF-A165/NRP-1 complex; settings: read-out: IC50, VEGF-A165/NRP-1 complex inhibitory effect, cited from earlier work

IC50 [1]: 4.04 µM
Molecule: 5/6-FAM-Dab(hArg^U)-Dab-Oic-Arg [Compound 10]
binding on cells ([2]; 0 to 100 µg/mL, FACS): dose-dependent | median fluorescence intensity of NRP-1 staining in presence of compound ([2]; 100 μg/ml, 4 °C, 94 in its absence): 88 | median fluorescent intensity of NRP-1 after 1 h (T60) relative to 5 min of incubation ([3]; 100 µg/mL, 37 °C): 1.5 fold | effect on NRP-1 cell surface expression ([3]; time course at 37 °C, independently of time exposure): no downmodulation of NRP-1 expression

half-life [4]: 8 h
Molecule: N=C(N)NCCCC[C@H](N)C(=O)NCCCC[C@H](N)C(=O)N[C@@H](CCN)C(=O)N1C2CCCCC2C[C@H]1C(=O)N[C@@H](CCCNC(=N)N)C(=O)O (stereo partly drawn) [PP, Lys(hArg)-Dab-Oic-Arg, reference compound] (H-K(hArg)[Dab][Oic(3aξ,7aξ)]R-OH)
IC50 ([5]; data already published): 2.3 µM

Molecule: Lys(Arg^U)–Dab–Oic–Arg
IC50 ([5]; earlier urea analogue): 5.5 µM

Source: PMC7793531 (International Journal of Molecular Sciences, 2020)
